Laboratory results reported in patent US20080194417A1, “Method for Measuring and Comparing the Activity of Biologically Active Compounds” (priority 2005, published 2008).

Key:
HepG2 cells [1] = test: Dose-dependent gene-transcriptional activity (Affymetrix GeneChip U133A) in HepG2 cells treated for 7 days; type: cell-based; conditions: for Difference in EC50 or IC50 values between RRR-α-T and all-rac-α-T / Number of genes dose-dependently regulated: HepG2; for EC50: HepG2, 104 induced genes, read-out: Transcriptional induction potency EC50, Mean ± SD; for EC50 / IC50: 7 days, 0-300 μM α-tocopheryl acetate in the media; for IC50: HepG2, 111 repressed genes, read-out: Transcriptional repression potency IC50, Mean ± SD; for Number of genes dose-dependently regulated: of the 14500 genes on the Affymetrix GeneChip U133A
Method: (§1) HepG2 cells (ATCC HB-8065) were cultured in 6 cm dishes in DMEM medium (GIBCO-Invitrogen, Switzerland) with 10% NU serum™ (Becton Dickinson, Switzerland) containing 1% Pen/Strep and undetectable amounts of vitamin E (detection limit 20 nM). Vitamin E compounds were applied as the acetate derivatives: RRR-α-tocopheryl acetate (Sigma and DSM Nutritional Products Ltd., Switzerland; 99-99.5 weight %, determined by gas chromatography) and all-rac-α-tocopheryl acetate (DSM Nutritional Products Ltd, Kaiseraugst, Switzerland; 98.0-99.5 weight %, determined by gas chromatography) were dissolved in 100% ethanol to prepare stock solutions. Treatment media were prepared by the addition of RRR-α-tocopheryl acetate (RRR-α-Tac) or all-rac-α-tocopheryl acetate (all-rac-α-Tac) to the basic medium at the following final concentrations: 0 (ethanol only, 1% final concentration), 10, 30, 80 and 300 μM. Treatment media were aliquoted and stored at −20° C. The vitamin E acetate treatment was performed for 7 days during the logarithmic growth phase of the cells. All treatment media were exchanged for fresh media every 24 hours. This treatment strategy has been chosen in the attempt to keep vitamin E acetate concentrations stable over time and to reach steady state intracellular vitamin E concentrations at 7 days of supplementation. All treatments were performed in quadruplicate dishes.
Cells were washed three times with PBS and lyzed with RTL buffer (Qiagen, Basel, Switzerland). Total RNA isolation was performed using RNeasy mini spin columns (Qiagen) and DNase digested on the columns (RNase-Free DNase Set, Qiagen) according to the manufacturer's description. cRNA preparation and Affymetrix GeneChip (U133A) hybridization were performed as described.
Data processing was carried out using the RACE-A analysis tool (Roche Bioinformatics, Basel, Switzerland) as described. Briefly, the arrays were normalized against the mean of the total sum of Average Difference (AvgDiff) values across all arrays used. Mean Average Difference values (MeanAvgDiff) were calculated as the means of one experiment performed in quadruplicate. Possible outliers were identified using the procedure of Nalimov with a 95% confidence interval. Subsequently, mean change factors (Chgf) for each individual gene were calculated among the different treatment groups and control using pair wise comparisons, and statistical significance was assessed by Student's t-test with prior testing for the normal distribution of the data. Applicant selected for those genes showing a dose-dependent regulation by vitamin E, i.e. maximal MeanAvgDiff>10 combined with a significant (p<0.05) differential Chgf between the vitamin E supplemented groups and the control group. The analysis of the experimental data obtained upon stimulation/treatment of the cells with RRR-α-Tac or all-rac-α-Tac was performed independently from each other.
EC50 and IC50 values, respectively, were determined by applying the standard four parameter model [y=a+(b−a)/(1+(x/c)̂d)] using the XL-Fit Software 3.0 (IDBS Inc. Emeryville, USA), where y is the normalized gene expression, x is the concentration of RRR-α-tocopherol or all-rac-α-tocopherol in the media and c corresponds to the EC50 and IC50 values, respectively. The potency-ratios were calculated as following: EC50RRR-α-T/EC50all-rac-α-T and IC50RRR-α-T/IC50all-rac-α-T.

HepG2 cells [2] = test: Cellular α-tocopherol concentrations in HepG2 cells (HPLC); type: cell-based; conditions: for Difference between the intracellular concentrations of RRR-α-T and all-rac-α-T: HepG2, 7 days; for Amount of free cellular vitamin E compared to control cells: HepG2, 7 days, 10, 30, 80 or 300 μM acetate in the media
Method: as §1
Adherent HepG2 cells were trypsinized, collected and washed three times with PBS containing 1% bovine serum albumin. Cells were saponified in a methanolic potassium hydroxide solution. The solution was diluted with 35% ethanol and extracted with hexane/toluene. α-Tocopheryl acetate and hydrolyzed α-tocopherols were quantified by isocratic HPLC analysis.

[3] = animal studies; cited from earlier work

SMILES	Difference in EC50 or IC50 values between RRR-α-T and all-rac-α-T (HepG2 cells [1])	EC50 (HepG2 cells [1]) [µM]	IC50 (HepG2 cells [1]) [µM]	Number of genes dose-dependently regulated (HepG2 cells [1])	Difference between the intracellular concentrations of RRR-α-T and all-rac-α-T (HepG2 cells [2])	Amount of free cellular vitamin E compared to control cells (HepG2 cells [2])	Potency ratio EC50RRR-α-T/EC50all-rac-α-T, Mean ± SD (HepG2 cells [1]; HepG2, 104 genes)	Potency ratio IC50RRR-α-T/IC50all-rac-α-T, Mean ± SD (HepG2 cells [1]; HepG2, 111 genes)	Overall biopotency factor (mean of all 215 potency ratios RRR-α-T to all-rac-α-T) (HepG2 cells [1]; HepG2, 215 genes)	Potency ratio Overall, Mean ± SD (HepG2 cells [1]; HepG2, 215 genes)	Biological potency relative to all-rac-α-T (times) [3]
Cc1c(C)c2c(c(C)c1O)CCC(C)(CCCC(C)CCCC(C)CCCC(C)C)O2 (racemic) [all-rac-α-T, all-rac-α-tocopherol]	no statistically significant differences	14 ± 9.1	6 ± 4.5	215	no significant difference	significantly increased					
Cc1c(C)c2c(c(C)c1O)CC[C@@](C)(CCC[C@H](C)CCC[C@H](C)CCCC(C)C)O2 [RRR-α-T, (2R,4′R,8′R)-α-tocopherol]	no statistically significant differences	18 ± 10.7	6.4 ± 6.8	215	no significant difference	significantly increased	0.9 ± 0.6	1.2 ± 0.7	1.05	1.05 ± 0.7	1.36
